Data from patent publication US20160213647A1, “COMPOSITIONS AND METHODS FOR INHIBITING VIRAL INFECTION” (priority 2015, published 2016).
Where two headings read alike, the source gives them in different places.

Key:
HIV-1 isolate A17 = assay: microbe, parasite or virus in culture; details: Human immunodeficiency virus 1, PBMC
HIV-1 isolate 1022-48 = assay: microbe, parasite or virus in culture; details: Human immunodeficiency virus 1, PBMC
HIV-1 isolate NL4-3 [1] = assay: microbe, parasite or virus in culture; details: Human immunodeficiency virus 1, NL43, PBMC
in vitro [2] = details: human
A/Ca/07/09 (H1N1) = assay: microbe, parasite or virus in culture; assay type: cell-based; details: Influenza A virus, H1N1, HEK-293T
A/Udorn/72 (H3N2) = assay: microbe, parasite or virus in culture; assay type: cell-based; details: Influenza A virus, H3N2, HEK-293T
in vitro [3] = details: human; remark: listed apart in the source
CHIKV 899 wild-type = assay: Chikungunya virus-induced cell death (CPE, MTS/PMS) assay in Vero A cells; details: Chikungunya virus, Vero, read-out: EC50 WT
HIV-1 MDR 769 = assay: microbe, parasite or virus in culture; details: Human immunodeficiency virus 1, PBMC
[4] = test system: Peripheral Blood Mononuclear Cells (PBMCs); details: human
in vitro [5] = details: human; remark: listed apart in the source
HIV-1 isolate MDR807 = assay: microbe, parasite or virus in culture; details: Human immunodeficiency virus 1, PBMC
HIV-1 isolate 4736_4 = assay: microbe, parasite or virus in culture; details: Human immunodeficiency virus 1, PBMC
HIV-2 CDC 310319 = assay: microbe, parasite or virus in culture; details: Human immunodeficiency virus 2, PBMC
HIV-1 92HT599 = assay: microbe, parasite or virus in culture; details: Human immunodeficiency virus 1, PBMC
HIV-2 CBL20 H9 = assay: microbe, parasite or virus in culture; details: Human immunodeficiency virus 2, PBMC
HIV-1 91US001 = assay: microbe, parasite or virus in culture; details: Human immunodeficiency virus 1, PBMC
HIV-1 isolate MDR769 = assay: microbe, parasite or virus in culture; details: Human immunodeficiency virus 1, PBMC
HIV-1 isolate NL4-3 [6] = test system: HIV-1 isolate NL4-3

Cc1ccnc2c1NC(=O)c1cccnc1N2C1CC1 [Nevirapine]
IC50 (HIV-1 isolate A17): > 10 µM | IC90 (HIV-1 isolate A17): > 10000 nM | IC90 (HIV-1 isolate 1022-48): 70.4 nM | IC90 (HIV-1 isolate 1022-48; read-out: IC50): 242 nM | IC90 (HIV-1 isolate NL4-3 [1]): 75.3 nM | IC90 (HIV-1 isolate NL4-3 [1]; read-out: IC50): 227 nM | CC50 (in vitro [2]): > 10000 nM

enfuvirtide
CC50 (human PBMCs): > 2000 nM

NC(=O)c1ncn([C@@H]2O[C@H](CO)[C@@H](O)[C@H]2O)n1 [Ribavirin, reference compound]
EC50 (A/Ca/07/09 (H1N1)): 12.8 µM | EC50 (A/Udorn/72 (H3N2)): 5.24 µM | CC50 (in vitro [3]): > 100 µM

NC(=O)c1nc(F)c[nH]c1=O [T-705, favipiravir, reference compound]
EC50 (CHIKV 899 wild-type): 7.4 µM

O=C1Nc2ccc(Cl)cc2[C@@](C#CC2CC2)(C(F)(F)F)O1 [Efavirenz]
IC50 (HIV-1 MDR 769): 0.66 nM | CC50 [4]: > 1000 nM | CC50 (in vitro [5]): > 1000 nM

Cc1cccc(C)c1OCC(=O)N[C@@H](Cc1ccccc1)[C@@H](O)C[C@H](Cc1ccccc1)NC(=O)[C@H](C(C)C)N1CCCNC1=O [Lopinavir]
IC50 (HIV-1 MDR 769): 827 nM | CC50 ([4]; 7 days): > 1000 nM | CC50 at 7 days (in vitro [5]): > 1000 nM

CC(C)c1nc(CN(C)C(=O)N[C@H](C(=O)N[C@@H](Cc2ccccc2)C[C@H](O)[C@H](Cc2ccccc2)NC(=O)OCc2cncs2)C(C)C)cs1 [Ritonavir, ritonavir]
IC90 (HIV-1 isolate MDR807): 1280 nM | IC90 (HIV-1 isolate MDR807; read-out: IC50): 5940 nM | IC50 (HIV-1 isolate 1022-48): > 10 µM | IC90 (HIV-1 isolate 1022-48): > 10000 nM | IC90 (HIV-1 isolate NL4-3 [1]): 45.5 nM | IC90 (HIV-1 isolate NL4-3 [1]; read-out: IC50): 92.3 nM

COc1cc2c(cc1Cc1cccc(Cl)c1F)c(=O)c(C(=O)O)cn2[C@H](CO)C(C)C [Elvitegravir]
IC90 (HIV-1 isolate NL4-3 [1]): 0.52 nM | IC90 (HIV-1 isolate NL4-3 [1]; read-out: IC50): 1.25 nM | IC90 (HIV-1 isolate 4736_4): 81.9 nM | IC90 (HIV-1 isolate 4736_4; read-out: IC50): 251 nM | CC50 (in vitro [2]): > 1000 nM

Cc1cn([C@H]2C[C@H](N=[N+]=[N-])[C@@H](CO)O2)c(=O)[nH]c1=O [AZT, azidothymidine]
IC50 (HIV-2 CDC 310319): 5.73 nM | CC50 [4]: > 1000 nM | IC90 (HIV-1 isolate MDR807): 162 nM | IC90 (HIV-1 isolate MDR807; read-out: IC50): > 1000 nM | IC50 (HIV-1 92HT599): 11.9 nM | IC50 (HIV-2 CBL20 H9): < 0.1 nM | IC50 (HIV-1 91US001): 17.4 nM | IC90 (HIV-1 isolate A17): 11.6 nM | IC90 (HIV-1 isolate A17; read-out: IC50): 27.4 nM | CC50 (in vitro [5]): > 1000 nM | IC50 (HIV-1 isolate 1022-48): > 1 µM | IC90 (HIV-1 isolate 1022-48): > 1000 nM | IC90 (HIV-1 isolate NL4-3 [1]): 9.96 nM | IC90 (HIV-1 isolate NL4-3 [1]; read-out: IC50): 39.6 nM | IC90 (HIV-1 isolate 4736_4): 2.57 nM | IC90 (HIV-1 isolate 4736_4; read-out: IC50): 20.6 nM | CC50 (in vitro [2]): > 1000 nM

Cc1nnc(C(=O)NC(C)(C)c2nc(C(=O)NCc3ccc(F)cc3)c(O)c(=O)n2C)o1 [Raltegravir, raltegravir]
IC90 (HIV-1 isolate MDR769): 3.64 nM | IC90 (HIV-1 isolate MDR769; read-out: IC50): 8.95 nM | IC90 (HIV-1 isolate MDR807): 0.46 nM | IC90 (HIV-1 isolate MDR807; read-out: IC50): 2.16 nM | IC90 (HIV-1 isolate NL4-3 [1]): 1.3 nM | IC90 (HIV-1 isolate NL4-3 [1]; read-out: IC50): 5.18 nM | IC90 (HIV-1 isolate 4736_4): 74.5 nM | IC90 (HIV-1 isolate 4736_4; read-out: IC50): > 100 nM | CC50 (in vitro [2]): > 100 nM

Enfuvirtide
IC50 (HIV-1 isolate NL4-3 [6]): 412 nM | IC90 (HIV-1 isolate NL4-3 [6]): 133 nM

CC(C)Nc1cccnc1N1CCN(C(=O)c2cc3cc(NS(C)(=O)=O)ccc3[nH]2)CC1 [Delavirdine]
IC50 (HIV-1 isolate A17): > 2 µM | IC90 (HIV-1 isolate A17): > 2000 nM | IC90 (HIV-1 isolate NL4-3 [1]): 30.6 nM | IC90 (HIV-1 isolate NL4-3 [1]; read-out: IC50): 57.6 nM | CC50 (in vitro [2]): > 2000 nM
